The subject of this experiment is Plasmodium falciparum. Description: GSK_TCMDC: Inhibition of Plasmodium falciparum 3D7 in whole erythrocytes, using parasite LDH activity as an index of growth. Format: functional, organism-based. The following applies: Plasmodium falciparum, 3D7.
As for `Cc1nc2ccccc2c(=O)n1/N=C/c1ccccc1[N+](=O)[O-]`, the XC50 turned out to be 221 nM.
Turning to `CCN(CC)CCN(Cc1ccc(-c2ccc(C(F)(F)F)cc2)cc1)C(=O)Cn1cc(CCCc2cccc(F)c2F)c(=O)c2ccccc21`, the XC50 is 1060 nM.
`C#CCN1CCC2=C(C1)c1c(O)cc(C(C)CCCc3ccc(F)cc3)cc1OC2(C)C` (configuration not stated) returned an XC50 of 731 nM.
Take `O=C1COC2(CN1CC1CCN(Cc3ccc(O)c(Cl)c3)C1)c1ccccc1-c1ccccc12` (configuration not stated): the XC50 was found to be 1060 nM.
With `O=C(Nc1ccc(I)cc1)Nc1ccc(Cn2ncc(N3CCCNCC3)c(Cl)c2=O)cc1` the figure was 1120 nM; with `O=C(NC1CCC(CN2CCC(c3c[nH]c4ccccc34)CC2)CC1)c1cc2cccc([N+](=O)[O-])c2[nH]1` (configuration not stated), 341 nM.
The compound `CCCCc1ccccc1NS(=O)(=O)c1ccc(OC)c(N2CCNCC2)c1` showed an XC50 of 1380 nM.
Take `Cc1cc2c(cc1C(F)(F)F)N(C(=O)Nc1ccc(C(=O)NCCN3CCCC3)cc1)CC2`: the XC50 came to 321 nM.
On to `COc1cccc(OC)c1OCCCON1C(=N)N=C(N)NC1(C)C`, for which the XC50 worked out at 7.28 nM.
With `CN(C(=O)c1ccc(Br)cc1)c1ccccc1[N+](=O)[O-]` the figure was 926 nM; with `CC(C)(C)C1=CC(=NNC(=O)c2ccncc2)C=C(C(C)(C)C)C1=O`, 704 nM; with `COc1ccc(CON2C(=N)N=C(N)NC2(C)C)cc1OC`, 6.06 nM.
With `C(=NN=c1cc(-c2ccccc2)[nH]c2ccccc12)c1cccnc1` the figure was 1230 nM; with `CCCCC(=O)N(CCOC)Cc1ccc(-c2ccc(CNCCC)cn2)cc1`, 730 nM.
Compound `COc1ccc(-c2ccc(CNC3Cc4ccccc4C3)cc2)cc1S(=O)(=O)NCCN1CCCC1` came in with an XC50 of 798 nM.
With `Nc1cccc(CNCc2cccc(-c3ccc(-c4nc5ccccc5[nH]4)cc3)c2)c1` the figure was 415 nM.
With `COc1ccc(C(=O)C2CC2CN2CC=C(c3c[nH]c4ccc(OC)nc34)CC2)cc1` (configuration not stated) the figure was 479 nM; with `O=C(NC1CC1)c1ccc(N2CCC(Oc3ccc(F)cc3)CC2)nc1`, 1090 nM.
The result for `O=C(Nc1cccc(-c2nn3ccccc3c2-c2ccnc(Nc3cccc(F)c3)n2)c1)c1c(F)ccc(F)c1F` reads 856 nM; that for `c1cc(CNCCN2CCNCC2)cc(-c2ccc(-c3nc4ccccc4[nH]3)cc2)c1`, 1080 nM; that for `CCCCCCC(C)c1cc(OCCN(CC)CC)c2c(c1)OC(C)(C)C=C2c1ccncc1` (configuration not stated), 1260 nM.
Compound `CN1CCN(c2ccnc3ccc(NC(=O)Cc4ccc5ccccc5c4)cc23)CC1` registered an XC50 of 759 nM.
With `CCCc1c(C(=O)NC2CCC(CN3CCC(c4c[nH]c5ccccc45)CC3)CC2)cnn1-c1ccccc1` (configuration not stated) the figure was 1790 nM; with `O=C(NCc1ccccc1)NC(CCCN1CCC(Oc2cccc(Cl)c2)CC1)c1ccc(Cl)c(Cl)c1` (configuration not stated), 862 nM; with `O=C(Nc1ccc(-c2ccc(-c3nc4cc(C(F)(F)F)ccc4[nH]3)cc2)cc1)Nc1ccc(F)c(F)c1F`, 217 nM.
`O=C(CCNc1ccnc(NCC2CCCCC2)n1)Nc1ccccc1`: the XC50 was 1100 nM.
Turning to `O=C1CSc2ccc(CNC3CCN(CCc4c(Cl)cnc5ccc(F)cc45)CC3)nc2N1`, the XC50 worked out at 427 nM.
The result for `O=C(/C=C/c1ccc(Cl)c(Cl)c1)NCCC1CCC(N2CCC(c3c[nH]c4ccc(O)cc34)CC2)CC1` (configuration not stated) reads 762 nM; that for `CC(=O)Nc1ccc(CN2CCC(NC(=O)c3ccc(-c4cccc(OC(C)C)c4)s3)CC2)cc1`, 1460 nM; that for `O=C(Nc1ccsc1)Nc1cccc(-c2cccc(-c3nc4ccccc4[nH]3)c2)c1`, 117 nM.
On to `N=C(NCCCCC1CCCCC1)c1cccc(C(=N)NCCCCC2CCCCC2)n1`, for which the XC50 came out at 395 nM.
`CCCc1c(C(=O)OCC)c2cc(O)ccc2n1-c1ccc(OC)cc1` returned an XC50 of 138 nM.
With `CCCN(CCC)CCCOc1ccc(C(=O)c2c(-c3ccc(OCCCN(CCC)CCC)cc3)oc3ccc(Cl)cc23)cc1` the figure was 340 nM.
With `O=C(Nc1cccc(-c2ccc(CN3CCCC3)cc2)c1)c1ccc(F)cc1` the figure was 1080 nM.
With `COc1cc(NC(=O)/C=C/c2cccc3cc[nH]c23)ccc1OCCN(C(C)C)C(C)C` the figure was 270 nM; with `O=C(NC1CCCCC1)C(c1cccs1)N(CCc1ccccc1)C(=O)c1ccco1` (configuration not stated), 1040 nM; with `O=C(Nc1ccc(Cl)c(Cl)c1)Nc1ccc2nccc(N3CCNCC3)c2c1`, 262 nM.
`COC(=O)c1cccc(CNCc2cccc(-c3cccc(-c4nc5cc(C(F)(F)F)ccc5[nH]4)c3)c2)c1`: the XC50 turned out to be 172 nM.
For the compound `CCCCCN1CCCC(NS(=O)(=O)c2ccc(C(=O)Nc3cccc(C(F)(F)F)c3)cc2)C1` (configuration not stated), the XC50 stood at 795 nM.
Turning to `CCn1c(-c2nonc2N)nc2c(-c3cccc(NC(=O)Nc4cccc(C(F)(F)F)c4)c3)ncc(OCCCN)c21`, the XC50 was determined as 969 nM.
The result for `Cc1cc(C2CCN(CCCCNC(=O)c3ccc(NC(=O)c4ccc(Cl)cc4)cc3)CC2)c(C)cc1OCc1ccncc1` reads 501 nM; that for `Cc1cc(C2CCN(CCCCNC(=O)c3ccc(NC(=O)c4ccc(Cl)cc4)cc3)CC2)c(C)cc1OCc1nccn1C`, 835 nM; that for `O=C(Nc1ccncc1)c1cc(C(=O)Nc2ccncc2)cc([N+](=O)[O-])c1`, 614 nM.
With `O=C(Nc1cc(Cl)ccc1Cl)N[C@H]1CCN(CCCCCNC(=O)C2CC2c2ccc(Cl)c(Cl)c2)C1` (some centres not stated) the figure was 770 nM; with `COc1ccc(C(=O)C2CCN(CCCCNC(=O)c3ccc(NC(=O)c4ccc(Cl)cc4)cc3)CC2)c(OC)c1`, 772 nM; with `CCc1cc2c(cc1OCCN(C)C)N(C(=O)Nc1ccc(-c3ccncc3)c(Cl)c1)CC2`, 840 nM.
With `COc1ccccc1N1CCN(Cc2c(NC(C)=O)sc(C)c2C)CC1` the figure was 425 nM; with `Cc1cc2nc(-c3ccc(/C=C/C(=O)NC4CCN(Cc5ccccc5)CC4)cc3)[nH]c2cc1C`, 588 nM; with `COc1ccccc1N(C)CCNc1cc(C)nc(Nc2ccc(C)cc2)n1`, 1570 nM.
`COc1ccccc1CNC(=O)c1cc(Br)cc(N2CCN(c3ccncc3)CC2)c1` displayed an XC50 of 946 nM.
With `COc1ccc(NC(=O)c2ccc(-c3ccc(-c4cccnc4)cc3)c(C)c2)cc1OCCN(C)C`, the XC50 was determined as 201 nM.
The result for `COc1cc2nc(N[C@@H](CO)c3ccccc3)nc(NCc3ccccc3)c2cc1OC` reads 657 nM; that for `CCN(CC)CCN(Cc1ccc(-c2ccc(C(F)(F)F)cc2)cc1)C(=O)c1c[nH]c2ccc(Br)cc12`, 953 nM.
With `CCCCCOc1c(CCC)cc(Cc2cnc(N)nc2N)cc1CCC` the figure was 898 nM; with `CC(=O)c1ccc(-c2ccccc2)s1`, 1080 nM; with `Cc1nc(N)nc(N)c1-c1ccc(Br)c(Br)c1`, 53.6 nM.
Compound `Cc1[nH]c2cc(F)ccc2c1C1=CCN(CCCCC2(C)C(=O)Nc3c(F)cccc32)CC1` (configuration not stated) returned an XC50 of 397 nM.
In the case of `Clc1ccc(OCc2ccccc2)c(-c2nc(-c3nc4ncc(Br)cc4[nH]3)cs2)c1`, the XC50 was 214 nM.
With `Cc1ccc(C(NC(=O)C2CCCCC2)c2ccc3cccnc3c2O)cc1` (configuration not stated) the figure was 953 nM; with `N#Cc1ccc2c(c1)CCN(CCC1CCC(NC(=O)Nc3ccncc3)CC1)C2` (configuration not stated), 1130 nM; with `COc1cc(CN=C(S)NN=C(C)c2ccccn2)cc(OC)c1OC`, 396 nM.
The result for `O=C(Nc1ccc(CN2CCOCC2)cc1)c1ccc(-c2cc(Cl)ccc2Cl)o1` reads 613 nM.
With `NC(=O)c1cccc(C(=O)Nc2cccc(-c3ccc(-c4nc5cc(C(F)(F)F)ccc5[nH]4)cc3)c2)c1` the figure was 520 nM; with `COc1ccc(Nc2nc(NCc3ccco3)c3ccccc3n2)cc1`, 740 nM.
`CCN(CC)CCN(CCN(CC)CC)c1ccc(-c2nc3cc(Cl)c(Cl)cc3[nH]2)cc1`: the XC50 stood at 785 nM.
`O=C(Nc1cccc(-c2nc3ccccc3[nH]2)c1)c1cccc(NC(=O)c2ccco2)c1`: the XC50 came to 360 nM.
In turn, `Cc1cc(Cl)c(Cl)cc1NC(=O)Nc1cccc(C(F)(F)F)c1` gave an XC50 of 873 nM.
The result for `CCOC(=O)c1c(C)noc1Nc1cccc(C)c1C` reads 416 nM; that for `Cc1cc(OCCCN2CCC(NS(=O)(=O)c3cccc(Br)c3)CC2)c2ccccc2n1`, 1110 nM.
The result for `O=C(Nc1ccnc(N2CCCN(Cc3cccc(O)c3)CC2)c1)c1ccc(F)cc1` reads 1480 nM; that for `Cc1cc(=NN=Cc2ccc(F)cc2)c2cc(C(F)(F)F)ccc2[nH]1`, 228 nM; that for `CCCC(C(=O)OCCN(CC)CC)(c1ccc(Cl)cc1)c1ccc(Cl)cc1`, 880 nM.
With `Cc1ccc(C)c(NC(=O)NCCNc2ccnc(Nc3ccc(F)cc3)n2)c1` the figure was 817 nM.
In the case of `O=C(/C=C/c1ccc(C(F)(F)F)cc1)N1CCC(CCN2CCC(c3c[nH]c4ccccc34)CC2)CC1`, the XC50 turned out to be 716 nM.
Take `COC(=O)c1ccc(CC(C)NCC(O)c2cccc(C(F)(F)F)c2)cc1C` (configuration not stated): the XC50 turned out to be 974 nM.
With `CC1(C)N=C(NC(=O)c2ccc([N+](=O)[O-])cc2)N=C(N)N1OCc1ccc2ccccc2c1` the figure was 7.57 nM; with `Cc1[nH]c(C)c(-c2ccc(OCCCCSc3ccncc3)cc2)c(=O)c1Br`, 246 nM; with `CSC1=NC(=Nc2c(C)cccc2C)C2(CCC(C(C)(C)C)CC2)N1c1ccc(O)cc1` (configuration not stated), 250 nM.
Take `CCCCCC(C)C(C)c1cc(OC(N)=O)c2c(c1)OC(C)(C)C=C2c1ccncc1` (configuration not stated): the XC50 came to 895 nM.
With `COc1ccc2[nH]cc(C3CC4CCC(C3)N4CCC3CCN(C(=O)/C=C/c4ccc(Cl)c(Cl)c4)CC3)c2c1` (configuration not stated) the figure was 624 nM.
Turning to `Cc1ccc(NC(=O)Nc2ccc(I)c(OCCN(C)C)c2)cc1Cl`, the XC50 was found to be 564 nM.
The compound `C=CCn1c(Cc2ccccc2)nnc1Sc1ccc(C#N)c([N+](=O)[O-])c1` yielded an XC50 of 1030 nM.
In the case of `CC(C)(C)NCC(O)COc1ccc(Cl)cc1C1=NNC(=O)CC1` (configuration not stated), the XC50 came out at 150 nM.
The result for `O=C(Nc1cccc(-c2ccc(-c3nc4cc(F)ccc4[nH]3)cc2)c1)c1csnn1` reads 278 nM; that for `COc1cc(Br)c(S(=O)(=O)n2cc(CN3CCC(N)CC3)c3cc(Cl)ccc32)cc1OC`, 985 nM; that for `O=C(c1cccc(COc2ccc3c(c2)CCN(C2CCCC2)CC3)c1)N1CCN(c2ccncc2)CC1`, 740 nM.
Consider `Cn1nccc1C(=O)NCCNCc1ccc(-c2cccc(-c3nc4cc(C(F)(F)F)ccc4[nH]3)c2)cc1`, for which the XC50 was found to be 117 nM.
